Marks after values point to notes of the source that are not given here.
How the values were obtained:
Format in all cases: in vivo
Fusarium graminearum = assay: whole plant or invertebrate
Alternaria solani = assay: Test H: tomato early blight, preventive spray on seedlings
Excerpt: General protocol for preparing test suspensions for Tests A-R: The test compounds were first dissolved in acetone in an amount equal to 3% of the final volume and then suspended at the desired concentration (in ppm) in acetone and purified water (50/50 mix) containing 250 ppm of the surfactant Trem® 014 (polyhydric alcohol esters). The resulting test suspensions were then used in tests A-R. In Tests A-M, compounds were sprayed as a 200 ppm test suspension (equivalent to a rate of 500 g/ha) or as a 40 ppm test suspension to the point of runoff on the test plants. In Tests N-R, compounds were sprayed as a 100 g/ha test suspension (equivalent to a rate of 100 ppm) on the test plants at an application volume of 1000 L/ha. The test suspension was sprayed to the point of run-off on wheat seedlings.

Botrytis cinerea = assay: Test F: tomato Botrytis, preventive spray on tomato seedlings
Summary of the method: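 Preventive run-off spray onto tomato seedlings at 200 ppm (equivalent to 500 g/ha) or 40 ppm. Suspensions: compound predissolved in acetone at 3% of final volume, then taken up in acetone/purified water 50/50 containing 250 ppm Trem® 014 surfactant.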

Septoria nodorum = assay: Test C: wheat glume blotch, preventive spray on wheat seedlings
Summary of the method: (§1)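 Preventive foliar spray to run-off on seedlings at 200 ppm (≈500 g/ha) or 40 ppm. Test suspension: acetone at 3% of final volume, then acetone/purified water 50/50 containing 250 ppm Trem® 014.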

[1] = test system: Puccinia recondita f. sp. tritici; assay: Test B: wheat leaf rust, preventive spray on wheat seedlings
Summary of the method: as §1

[2] = test system: Erysiphe graminis f. sp. tritici; assay: Test A: wheat powdery mildew, preventive spray on wheat seedlings
Summary of the method: as §1

Septoria tritici = assay: Test D: wheat leaf blotch, preventive spray on wheat seedlings
Summary of the method: as §1

[3] = test system: Colletotrichum orbiculare; assay: Test I: cucumber Colletotrichum anthracnose, preventive spray on cucumber seedlings; conditions: 100 = 100% disease control, 0 = no control relative to controls; for pest or weed control at 200 ppm: Colletotrichum orbiculare, 144 h, read-out: Test I disease control rating
Summary of the method: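 Preventive foliar spray to run-off on cucumber seedlings, at 200 ppm (stated as equal to 500 g/ha) or 40 ppm. Test suspensions were made in acetone/water 50/50 containing 250 ppm Trem 014, after first dissolving compound in acetone at 3% of final volume.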

[4] = 200 ppm, 100 = 100% disease control, 0 = no control relative to controls
[5] = Fusarium graminearum, in Triticum aestivum, 192 h, read-out: Test E disease control rating
[6] = Alternaria solani, 168 h, 200 ppm, 100 = 100% disease control, 0 = no control relative to controls, read-out: Test H disease control rating
[7] = Botrytis cinerea, 120 h, 200 ppm, 100 = 100% disease control, 0 = no control relative to controls, read-out: Test F disease control rating
[8] = Parastagonospora nodorum, 216 h, 200 ppm, 100 = 100% disease control, 0 = no control relative to controls, read-out: Test C disease control rating
[9] = Puccinia recondita, 192 h, 200 ppm, 100 = 100% disease control, 0 = no control relative to controls, read-out: Test B disease control rating
[10] = Zymoseptoria tritici, 504 h, 200 ppm, 100 = 100% disease control, 0 = no control relative to controls, read-out: Test D disease control rating

| Structure (SMILES) | Test E disease control rating (Fusarium graminearum; [4]) [%] | Test F disease control rating (Botrytis cinerea; [4]) [%] | Test C disease control rating (Septoria nodorum; [4]) [%] | Test B disease control rating [1, 4] [%] | Test A disease control rating [2, 4] [%] | Test D disease control rating (Septoria tritici; [4]) [%] | Test H disease control rating (Alternaria solani; [4]) [%] | pest or weed control at 200 ppm (Fusarium graminearum; [5]) [%] | pest or weed control at 200 ppm (Alternaria solani; [6]) [%] | pest or weed control at 200 ppm (Botrytis cinerea; [7]) [%] | pest or weed control at 200 ppm (Septoria nodorum; [8]) [%] | pest or weed control at 200 ppm [1, 9] [%] | pest or weed control at 200 ppm (Septoria tritici; [10]) [%] | pest or weed control at 200 ppm [3] [%] | further results |
| --- | --- | --- | --- | --- | --- | --- | --- | --- | --- | --- | --- | --- | --- | --- | --- |
| COC[C@H](C)Nc1nccc(-c2ncnc(Nc3ccnc(Cl)c3)n2)n1 [Compound 27] | 97 | 94 | 99 | 100 | 0 | 75 | – | – | – | – | – | – | – | – | Test H disease control rating (Alternaria solani; 40 ppm (marked *)): 100* % |
| COCC(C)(C)Nc1nccc(-c2ncnc(Nc3cc(F)cc(F)c3)n2)n1 [Compound 30] | 91 | 96 | 100 | 99 | 67 | 88 | – | – | – | – | – | – | – | – | Test H disease control rating (Alternaria solani; 40 ppm (marked *)): 87* % |
| COC[C@H](C)Nc1nccc(-c2ncnc(Nc3ccnc(F)c3)n2)n1 [Compound 31] | 89 | 99 | 100 | 100 | 0 | 88 | 92 | – | – | – | – | – | – | – | – |
| COC(C)(C)Nc1nccc(-c2ncnc(Nc3cc(F)cc(F)c3)n2)n1 [Compound 32] | 38 | 94 | 100 | 99 | 0 | 39 | 99 | – | – | – | – | – | – | – | – |
| CC(C)(C)Nc1nccc(-c2ncnc(Nc3cc(F)cc(F)c3)n2)n1 [Compound 33] | – | 0 | 99 | 87 | 0 | 22 | 94 | – | – | – | – | – | – | – | Test E disease control rating (Fusarium graminearum; 40 ppm (marked *)): 83* % |
| Fc1cc(F)cc(Nc2ncnc(-c3ccnc(NC4CCOCC4)n3)n2)c1 [Compound 34] | 68 | 0 | 100 | 98 | 0 | 59 | 94 | – | – | – | – | – | – | – | – |
| COC[C@H](C)Nc1nccc(-c2ncnc(Nc3cc(F)cc(C#N)c3)n2)n1 [Compound 36] | – | – | – | – | – | – | – | – | – | – | – | – | – | – | Test E disease control rating (Fusarium graminearum; 40 ppm (marked *)): 91* %; Test H disease control rating (Alternaria solani; 40 ppm (marked *)): 99* %; Test F disease control rating (Botrytis cinerea; 40 ppm (marked *)): 99* %; Test C disease control rating (Septoria nodorum; 40 ppm (marked *)): 100* %; Test B disease control rating ([1]; 40 ppm (marked *)): 99* %; Test A disease control rating ([2]; 40 ppm (marked *)): 0* %; Test D disease control rating (Septoria tritici; 40 ppm (marked *)): 29* % |
| COC[C@H](C)Nc1nccc(-c2ncnc(Nc3ccc(C#N)nc3)n2)n1 [Compound 37, 5-[[4-[2-[[(1S)-2-methoxy-1-methylethyl]amino]-4-pyrimidinyl]-1,3,5-triazinyl]amino]-2-pyridinecarbonitrile] | – | – | – | – | – | – | – | 41 | 72 | 0 | 98 | 99 | 0 | – | pest or weed control at 200 ppm ([2]; Blumeria graminis, 192 h, 200 ppm, 100 = 100% disease control, 0 = no control relative to controls, read-out: Test A disease control rating): 79% |
| COC[C@H](C)Nc1nccc(-c2ncnc(Nc3cc(F)cc([N+](=O)[O-])c3)n2)n1 [Compound 39, N-(3-fluoro-5-nitrophenyl)-4-[2-[[(1S)-2-methoxy-1-methylethyl]amino]-4-pyrimidinyl]-1,3,5-triazin-2-amine] | – | – | – | – | – | – | – | – | – | – | – | – | – | – | pest or weed control at 40 ppm (Fusarium graminearum; [5]): 82%; pest or weed control at 40 ppm (Alternaria solani; Alternaria solani, 168 h, 40 ppm (marked *), read-out: Test H disease control rating): 99%; pest or weed control at 40 ppm (Botrytis cinerea; Botrytis cinerea, 120 h, 40 ppm (marked *), read-out: Test F disease control rating): 60%; pest or weed control at 40 ppm (Septoria nodorum; Parastagonospora nodorum, 216 h, 40 ppm (marked *), read-out: Test C disease control rating): 99%; pest or weed control at 40 ppm ([1]; Puccinia recondita, 192 h, 40 ppm (marked *), read-out: Test B disease control rating): 98%; pest or weed control at 40 ppm ([2]; Blumeria graminis, 192 h, 40 ppm (marked *), read-out: Test A disease control rating): 0%; pest or weed control at 40 ppm (Septoria tritici; Zymoseptoria tritici, 504 h, 40 ppm (marked *), read-out: Test D disease control rating): 24% |
| COC(C)CNc1nccc(-c2ccnc(Nc3cccc(F)c3)c2)n1 (centres unmarked) [Compound 96, 4-[2-[(3-fluorophenyl)amino]-4-pyridinyl]-N-(2-methoxypropyl)-2-pyrimidinamine] | – | – | – | – | – | – | – | 0 | 0 | 86 | 99 | 85 | 28 | 0 | – |
| Cc1cc(Cl)cc(Cl)c1Nc1cc(-c2ccnc(NC3CCOCC3)n2)ccn1 [Compound 100] | 96 | 0 | 98 | 98 | 0 | 77 | 99 | – | – | – | – | – | – | – | Test I disease control rating ([3]; 200 ppm): 0% |
| Clc1ccccc1Nc1cc(-c2ccnc(NC3CCOCC3)n2)ccn1 [Compound 101, 4-[2-[(2-chlorophenyl)amino]-4-pyridinyl]-N-(tetrahydro-2H-pyran-4-yl)-2-pyrimidinamine] | – | – | – | – | – | – | – | 97 | 92 | 99 | 100 | 99 | 53 | 97 | – |
| Cc1ccc(Nc2cc(-c3ccnc(NC4CCOCC4)n3)ccn2)c(Cl)c1 [Compound 102, 4-[2-[(2-chloro-4-methylphenyl)amino]-4-pyridinyl]-N-(tetrahydro-2H-pyran-4-yl)-2-pyrimidinamine] | – | – | – | – | – | – | – | 27 | 41 | 83 | 100 | 93 | 3 | 0 | – |
| Cc1cc(Cl)ccc1Nc1cc(-c2ccnc(NC3CCOCC3)n2)ccn1 [Compound 103, 4-[2-[(4-chloro-2-methylphenyl)amino]-4-pyridinyl]-N-(tetrahydro-2H-pyran-4-yl)-2-pyrimidinamine] | – | – | – | – | – | – | – | 0 | 99 | 0 | 100 | 97 | 1 | 0 | – |
| Cc1cccc(Cl)c1Nc1nccc(-c2ncnc(NC3CCOCC3)n2)n1 [Compound 104, 4-[2-[(2-chloro-6-methylphenyl)amino]-4-pyrimidinyl]-N-(tetrahydro-2H-pyran-4yl)-1,3,5-triazin-2-amine] | – | – | – | – | – | – | – | 0 | 0 | 0 | 94 | 99 | 10 | 0 | – |
| COCC(C)Nc1cc(-c2ccnc(Nc3c(C)cccc3Cl)n2)ncn1 (centres unmarked) [Compound 110, N^2-(2-chloro-6-methylphenyl)-N^6′-(2-methoxy-1-methylethyl) [4,4′-bipyrimidine]-2,6′-diamine] | – | – | – | – | – | – | – | 0 | 89 | 65 | 60 | 89 | 9 | 97 | – |

From patent US8026359B2, “Fungicidal heterocyclic amines” (E.I. du Pont de Nemours and Company, priority 2007, dated 2011)
